Assay results published in ChEMBL document CHEMBL3351324, “Impact of Stereochemistry on Ligand Binding: X-ray Crystallographic Analysis of an Epoxide-Based HIV Protease Inhibitor” (ACS Med Chem Lett, 2014).
Calls of active or inactive are those of the source. No cut-off for these calls is given here.

Key:
[1] = target: Protease (Human immunodeficiency virus 1) (UniProt Q9YQ12); assay: Covalent inhibition of HIV1 protease assessed as covalent modification of enzyme residues by ESI-MS method
[2] = target: Protease (Human immunodeficiency virus 1) (UniProt Q9YQ12); assay: Time dependent inhibition of HIV1 protease by standard fluorimetric assay
[3] = target: Protease (Human immunodeficiency virus 1) (UniProt Q9YQ12); assay: Irreversible inhibition of HIV1 protease by standard fluorimetric assay
Protease = Protease (Human immunodeficiency virus 1, UniProt Q9YQ12); assay: Inhibition of HIV1 protease by standard fluorimetric assay
[4] = target: Protease (Human immunodeficiency virus 1) (UniProt Q9YQ12); assay: Inhibition of HIV1 protease assessed as compound epoxide ring interaction with enzyme active site by X-ray crystallography

**Q.** What does the source list for `CC(C)[C@H](NC(=O)COc1ccccc1)C(=O)N[C@@H](Cc1ccccc1)[C@@H](O)[C@@H]1O[C@H]1Cc1ccccc1`?
**A.** inhibition [1]: inactive; inhibition [2]: inactive; inhibition [3]: inactive; IC50 (Protease): 670 nM; inhibition [4]: Active
